Experimental data reported in PubChem BioAssay (NCI).
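Compound exposure: 48 hours, 5 concentrations, 96-well plates. Definition used: TGI = concentration required for complete inhibition of growth.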

Assays:
Test in all cases: inhibition of tumour cell growth, NCI panel, 48 h
MDA-MB-231 breast = system: MDA-MB-231 breast
K-562 leukemia = system: K-562 leukemia
786-0 renal = system: 786-0 renal
SNB-75 CNS = system: SNB-75 CNS
HCT-116 colon = system: HCT-116 colon
UACC-257 melanoma = system: UACC-257 melanoma
SN12C renal = system: SN12C renal
LOX IMVI melanoma = system: LOX IMVI melanoma
ACHN renal = system: ACHN renal
SK-OV-3 ovarian = system: SK-OV-3 ovarian
NCI/ADR-RES ovarian = system: NCI/ADR-RES ovarian
UO-31 renal = system: UO-31 renal
DU-145 prostate = system: DU-145 prostate
EKVX NSCLC = system: EKVX NSCLC
SK-MEL-28 melanoma = system: SK-MEL-28 melanoma
RPMI-8226 leukemia = system: RPMI-8226 leukemia
HL-60(TB) leukemia = system: HL-60(TB) leukemia
A498 renal = system: A498 renal
OVCAR-4 ovarian = system: OVCAR-4 ovarian
SNB-19 CNS = system: SNB-19 CNS
IGROV1 ovarian = system: IGROV1 ovarian
M14 melanoma = system: M14 melanoma
HOP-92 NSCLC = system: HOP-92 NSCLC
OVCAR-3 ovarian = system: OVCAR-3 ovarian
HCT-15 colon = system: HCT-15 colon
SF-295 CNS = system: SF-295 CNS
MDA-MB-435 = system: MDA-MB-435
COLO 205 colon = system: COLO 205 colon
HOP-62 NSCLC = system: HOP-62 NSCLC
U251 CNS = system: U251 CNS
RXF 393 renal = system: RXF 393 renal
SR leukemia = system: SR leukemia
SF-268 CNS = system: SF-268 CNS
TK-10 renal = system: TK-10 renal
MALME-3M melanoma = system: MALME-3M melanoma
MDA-N = system: MDA-N
NCI-H460 lung = system: NCI-H460 lung
T-47D breast = system: T-47D breast
HT29 colon = system: HT29 colon
HS 578T breast = system: HS 578T breast
NCI-H522 lung = system: NCI-H522 lung
SK-MEL-2 melanoma = system: SK-MEL-2 melanoma
BT-549 breast = system: BT-549 breast
NCI-H226 lung = system: NCI-H226 lung
MCF7 breast = system: MCF7 breast
MOLT-4 leukemia = system: MOLT-4 leukemia
A549 NSCLC = system: A549 NSCLC
SK-MEL-5 melanoma = system: SK-MEL-5 melanoma
CCRF-CEM leukemia = system: CCRF-CEM leukemia
PC-3 prostate = system: PC-3 prostate
NCI-H23 lung = system: NCI-H23 lung
KM12 colon = system: KM12 colon
UACC-62 melanoma = system: UACC-62 melanoma
CAKI-1 renal = system: CAKI-1 renal
OVCAR-5 ovarian = system: OVCAR-5 ovarian
OVCAR-8 ovarian = system: OVCAR-8 ovarian
SW-620 colon = system: SW-620 colon
HCC-2998 colon = system: HCC-2998 colon
SF-539 CNS = system: SF-539 CNS

Measured: TGI

O=c1[nH]c(SCc2cccc([N+](=O)[O-])c2)nc2nc[nH]c12
not listed: HCC-2998 colon | SF-539 CNS
> 100 µM: all other assays above

Cc1ccc(/C=C2\NC(=S)NC2=O)cc1
not listed: UACC-257 melanoma | ACHN renal | HL-60(TB) leukemia | A498 renal | HOP-92 NSCLC | SR leukemia | NCI-H460 lung
> 100 µM: all other assays above

CC(O)c1cc2c(s1)C(=O)c1c(C(C)O)csc1C2=O (configuration not stated)
0.959 µM: NCI-H226 lung
0.468 µM: IGROV1 ovarian
0.183 µM: MDA-MB-435 | UACC-62 melanoma
1.76 µM: SK-OV-3 ovarian
0.593 µM: NCI/ADR-RES ovarian
0.24 µM: NCI-H23 lung
0.349 µM: SN12C renal
0.115 µM: MALME-3M melanoma
4.32 µM: U251 CNS
0.804 µM: HS 578T breast
0.762 µM: HOP-92 NSCLC
> 100 µM: MCF7 breast
1.53 µM: LOX IMVI melanoma
0.514 µM: PC-3 prostate
0.439 µM: HOP-62 NSCLC
0.462 µM: A498 renal
1.07 µM: HCC-2998 colon | HCT-116 colon
0.422 µM: HCT-15 colon
0.466 µM: SK-MEL-28 melanoma
0.482 µM: MDA-MB-231 breast
0.801 µM: RPMI-8226 leukemia
0.656 µM: RXF 393 renal
2.08 µM: 786-0 renal
0.216 µM: UACC-257 melanoma
0.776 µM: UO-31 renal
1.79 µM: TK-10 renal
0.616 µM: K-562 leukemia
0.292 µM: SK-MEL-2 melanoma
0.255 µM: SF-295 CNS
2.58 µM: COLO 205 colon
2.7 µM: HT29 colon
1.01 µM: CAKI-1 renal
0.0415 µM: HL-60(TB) leukemia
0.135 µM: OVCAR-3 ovarian
0.148 µM: NCI-H460 lung
1.35 µM: OVCAR-5 ovarian
0.492 µM: CCRF-CEM leukemia
0.667 µM: T-47D breast
0.0483 µM: MDA-N
0.378 µM: BT-549 breast
0.524 µM: OVCAR-4 ovarian
0.566 µM: SNB-75 CNS
0.833 µM: SW-620 colon
1.08 µM: SNB-19 CNS | KM12 colon
0.0716 µM: SK-MEL-5 melanoma
0.242 µM: DU-145 prostate
0.355 µM: A549 NSCLC
0.717 µM: OVCAR-8 ovarian
1.38 µM: ACHN renal
1.32 µM: SF-268 CNS
0.449 µM: SF-539 CNS
1.13 µM: EKVX NSCLC | NCI-H522 lung

Cc1ccc(O)c(C2=CC3=NNC(=O)C3C(c3cccc(Cl)c3)C2)c1 (configuration not stated)
57.5 µM: TK-10 renal
30.4 µM: COLO 205 colon
47.1 µM: MCF7 breast
84.1 µM: OVCAR-3 ovarian
94 µM: MALME-3M melanoma
86.2 µM: SK-MEL-2 melanoma
76.2 µM: SNB-75 CNS
75.9 µM: RPMI-8226 leukemia
77.3 µM: OVCAR-8 ovarian
49.1 µM: LOX IMVI melanoma
44.5 µM: HCC-2998 colon
86.6 µM: UACC-62 melanoma
96.1 µM: HOP-92 NSCLC
55.1 µM: KM12 colon
78.7 µM: BT-549 breast
44.3 µM: OVCAR-4 ovarian
92.2 µM: MDA-N
63.9 µM: HT29 colon
9.62 µM: RXF 393 renal
not listed: NCI-H522 lung | NCI-H226 lung
> 100 µM: all other assays above
